Test: Toxicology studies, skin irritation
Details: in vivo
Source text: Toxicology studies on the compound of Example 1 have indicated the compound to be quite safe. […] No special handling procedures beyond normal precautions are deemed necessary.

For `CCOCN(C(=O)CCl)c1c(C)cccc1C(F)(F)F` [Example 1, N-(ethoxymethyl)-2'-trifluoromethyl-6'-methyl-2-chloroacetanilide], the skin irritation was “no skin irritation”.

From patent US4731109A, “Herbicidal 2-haloacetanilides” (Monsanto Company, priority 1982, dated 1988)
